“Also recorded” adds a separate entry of the source.
Legend:
BT474 cells [1] = assay: 13C2-acetate tracing in BT474 cells; format: cell-based, human
Procedure: (§1) All metabolomic experiments were performed in serum-like modified Eagle's medium (SMEM). SMEM contains 54 different nutrients that are found in the bloodstream at concentrations that are physiologically relevant to humans. SMEM was supplemented with 10% or 1% fetal bovine serum (FBS; Life Technologies). Cells were grown in normoxia (atmospheric oxygen) or hypoxia (1% oxygen) while being incubated in uniformly labeled ^13C2-acetate (0.100 mM; Cambridge Isotope Laboratories). Lengths of incubation are described in the figure legends. For extraction of metabolites from cultured cells, SMEM medium was aspirated and cells were washed once in ice-cold PBS. Metabolites were extracted by adding a solution of LC-MS grade methanol/acetonitrile/water (5:3:2) to the well. Plates were incubated at 4° C. for 5 minutes on a rocker and then the extraction solution was collected. The metabolite extract was cleared by centrifugation at 15,000×g for 10 minutes at 4° C. Supernatants were transferred to LC-MS silanized glass vials with PTFE caps and either run immediately on the LC-MS or stored at −80° C. […]
(§2) LC-MS analysis was performed on a Q Exactive Hybrid Quadrupole-Orbitrap HF-X MS (ThermoFisher Scientific) equipped with a HESI II probe and coupled to a Vanquish Horizon UHPLC system (ThermoFisher Scientific). […] Samples were analyzed in full MS scan with polarity switching at scan range 65 to 975 m/z; 120,000 resolution; automated gain control (AGC) target of 1E6; and maximum injection time (max IT) of 100 milliseconds. Identification and quantitation of metabolites was performed using an annotated compound library and TraceFinder 4.1 software. […]
The ^13C2-acetate tracer studies were repeated in BT474 and MDA-MB-468 cells and polar metabolites were isolated in order to analyze carbon-13 labeling of the cytosolic metabolite UDP-N-acetylglucosamine (UDP-GlcNAc) and the mitochondrial metabolite citrate. Citrate is a readout of ACSS1 and ACSS3 activity in the cells since they are the mitochondria localized AcCoA synthetase family members (FIG. 11A). […]

BT474 cells [2] = assay: RNA sequencing of BT474 cells under hypoxia and low lipid stress; format: cell-based, human; settings: H1, RNA sequencing
Procedure: ACSS2 affects histone and transcription factor acetylation in the nucleus of cells which then affects gene transcription. It was thus tested if inhibition of ACSS2 affects hypoxia and lipid depletion induced transcriptional stress responses. BT474 cells were incubated in normoxic, nutrient replete conditions (N10) and in hypoxic, low lipid conditions (H1). […] Additional analysis also found significant upregulation of 30 genes related to fatty acid synthesis (FIG. 3D).
It was then compared how many of the 1075 hypoxia and low lipid stress responsive genes were affected by siRNA mediated knockdown of ACSS2 (siACSS2) and VY-3-135 treatment.

BT474 tumors [3] = assay: BT474 tumor xenograft growth in NSG mice; format: in vivo, mouse
Procedure: For BT474 mouse xenograft studies 5-6 week old female NSG […] were anesthetized and one 17β-estradiol 60 day release pellet (Innovative Research of America Cat. No. SE-121) was injected subcutaneously via 10 gauge precision trochar into the lateral side of the neck between the ear and shoulder. 24 hours later 10^5 BT474 luciferase positive cells in 100 μl PBS:matrigel (growth factor reduced) were injected subcutaneously into the hind limb. For A7C11 and Brpkp110 xenografts, 5×10^5 cells in 100 μl PBS:Matrigel (growth factor reduced Corning Cat. No. 356231) were subcutaneously injected into the hindlimb of 5-6 week old female NSG mice […]. Following tumor establishment in all groups, mice were randomized and treated intraperitoneally (IP) daily with vehicle (10% DMSO, 10% absolute ethanol, 20% solutol, 60% water containing 0.5% Tween20) or 100 mg/kg VY-3-135 as indicated in the figure legend. Tumors were measured thrice weekly via caliper measurement and tumor volume calculated as (L×W^2)/2 (where L is the longer of the 2 measurements). […]
Mice bearing luciferase positive tumors were injected IP with 150 mg/kg sterile filtered D-luciferin potassium salt (Gold Bio Cat. No. LUCK-1G). […] Images were analyzed using Living Image Software (Perkin Elmer). […]

BT474 tumors [4] = assay: In vivo 13C2-acetate tracing in BT474 tumors; design: species or system mouse
Procedure: as §1, §2
On-target activity of VY-3-135 in the tumor was probed. […] Tumor lipid extracts were saponified and the resulting fatty acids were analyzed by LC-MS. Likewise, polar metabolites were extracted from matching tumor samples and analyzed by LC-MS. […] Isotopologs ≥M+10 were not detected in tumors from VY-3-135 treated mice.

CCn1c(C(O)(c2ccccc2)c2ccccc2)nc2ccc(C(=O)NC[C@@H](C)O)cc21 [VY-3-135, (R)-1-ethyl-2-(hydroxydiphenylmethyl)-N-(2-hydroxypropyl)-1H-benzo[d]imidazole-6-carboxamide]
incorporation of 13C2-acetate into UDP-GlcNAc (BT474 cells [1]; BT474 cells (FIG. 11C)): able to block incorporation of ^13C2-acetate into UDP-GlcNAc to nearly the levels of unlabeled cells | incorporation of 13C2-acetate into citrate (BT474 cells [1]; BT474 cells, H1, 24 hr (FIG. 2D), readout of ACSS1 and ACSS3): did not decrease incorporation of ^13C2-acetate into citrate | use of acetate as a substrate for fatty acid synthesis (13C2-acetate into palmitate) (BT474 cells [1]; BT474 cells, hypoxia and low lipid medium, 24 hours (FIG. 2C)): markedly inhibits the use of acetate as a substrate for fatty acid synthesis at low nanomolar concentrations | transcriptional regulation of genes in response to hypoxia and low lipid stress (BT474 cells [2]): has a minimal effect on the transcriptional regulation of genes in response to hypoxia and low lipid stress | tumor palpability / regression at end of regimen (BT474 tumors [3]; BT474 luciferase tumors, VY-3-135 treated group): two of the tumors in VY-3-135 treated group were not palpable by the end of the regimen, with one tumor fully regressing | BT474 tumor growth (BT474 tumors [3]; VY-3-135 100 mg/kg IP daily, two weeks of treatment (FIG. 6A), 100 mg/kg): causes a significant decrease in BT474+luciferase tumor growth; also recorded: completely abrogated tumor growth | 13C2-acetate labeling of citrate in tumors (BT474 tumors [4]; BT474 tumors (FIG. 6D)): no effect was observed | palmitate isotopologs ≥M+10 in tumors (BT474 tumors [4]; BT474 tumors from treated mice): not detected | 13C labeling of palmitate in tumors (BT474 tumors [4]; BT474 tumors, 13C2-acetate in drinking water 48 hours (FIG. 6C)): caused a significant decrease in the ^13C labeling of palmitate
